Data on one compound can be found in ChEMBL document CHEMBL5728435, “Alpha-D-galactoside inhibitors of galectins” (2021).

One test deals with Galectin-1 (Homo sapiens, UniProt P09382). The test can be described thus: (§1) Fluorescence Anisotropy Assay: Compounds for galectins were determined by a fluorescence anisotropy assay where the compound was used as an inhibitor of the interaction between galectin and a fluorescein tagged saccharide probe.
For a further test, the target named is Galectin-3 (Homo sapiens, UniProt P17931). The test is described as §1.
Sequence of Galectin-3 (P17931 whole entry): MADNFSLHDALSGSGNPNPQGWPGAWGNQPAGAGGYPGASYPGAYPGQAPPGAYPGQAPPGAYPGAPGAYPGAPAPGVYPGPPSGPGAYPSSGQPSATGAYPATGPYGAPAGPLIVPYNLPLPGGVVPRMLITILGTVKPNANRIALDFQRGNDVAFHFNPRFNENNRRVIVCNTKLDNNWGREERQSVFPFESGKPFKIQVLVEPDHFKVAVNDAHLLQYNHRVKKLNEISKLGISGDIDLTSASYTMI

Sequence of Galectin-1 (P09382 whole entry): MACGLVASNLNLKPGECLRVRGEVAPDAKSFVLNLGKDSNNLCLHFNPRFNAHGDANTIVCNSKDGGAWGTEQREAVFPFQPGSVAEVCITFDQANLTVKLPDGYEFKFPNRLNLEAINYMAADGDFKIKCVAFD

As a reminder, the Kd is a measure of binding affinity in units of concentration. A low value points to a tighter complex. Consider `OCC1O[C@H](Sc2cc(Cl)c(F)c(Cl)c2)C(O)[C@@H](n2cc(-c3nccs3)nn2)[C@H]1O` (some centres not stated), for which the values for the equilibrium dissociation constant (Kd) at Galectin-1 and at Galectin-3 were 0.28 µM and 10 µM, respectively.
